Patent EP2688405B1 (priority 2011, dated 2012)
Values after ≈ are worked out from the molar mass of the structure shown. Where two headings read alike, the source gives them in different places.

Key:
Assay type in all cases: cell-based
Phytophthora infestans = conditions: Phytin, single compound
Botrytis cinerea = assay: Microtest with mixtures of active compounds, grey mold (Botrci); conditions: single compound
Septoria tritici = assay: Microtest with mixtures of active compounds, leaf blotch on wheat (Septtr)
Pyricularia oryzae = conditions: Pyrior, single compound
[1] = test system: Staphylococcus aureus ATCC 29213; assay: Minimum Inhibitory Concentration (MIC) test, broth microdilution; conditions: ATCC 29213 / DSM 2569, IsoSensitest broth, 24 hours at 37°C, no growth (OD smaller than 0.1)
[2] = test system: Pseudomonas aeruginosa ATCC 27853; assay: as above; conditions: ATCC 27853 / DSM 1117, IsoSensitest broth, 24 hours at 37°C, no growth (OD smaller than 0.1)

Question: Cn1cc(C(=O)Nc2ccccc2-c2cc(F)c(F)c(F)c2)c(C(F)F)n1 [Fluxapyroxad] was tested. Which Observed efficacy (Phytophthora infestans; 0.063 ppm) did it give?
Answer: 12%

Question: And the Observed efficacy (Botrytis cinerea; 0.016 ppm)?
Answer: 13%

Question: Which Observed efficacy (Phytophthora infestans; 4 ppm) does the source give for Fc1ccc([C@@]2(Cn3ncnc3S)O[C@@H]2c2ccccc2Cl)c(F)c1 (relative stereo) [Azole*, 2-[rel-(2S;3R)-3-(2-chlorophenyl)-2-(2,4-difluorophenyl)-oxiranylmethyl]-2H-[1,2,4]triazole-3-thiol] here?
Answer: 20%

Question: What about the Observed efficacy (Septoria tritici; 0.25 ppm) of the same molecule?
Answer: 4%

Question: And the Observed efficacy (Septoria tritici; 4 ppm)?
Answer: 40%

Question: And the Observed efficacy (Botrytis cinerea; 1 ppm)?
Answer: 15%

Question: What about the Observed efficacy (Pyricularia oryzae; 16 ppm) of the same molecule?
Answer: 65%

Question: With COC(=O)N(OC)c1ccccc1COc1ccn(-c2ccc(Cl)cc2)n1 [Pyraclostrobin] as the molecule, how does the Observed efficacy (Phytophthora infestans; 0.063 ppm) read?
Answer: 24%

Question: And the Observed efficacy (Septoria tritici; Septtr, single compound, 0.001 ppm)?
Answer: 38%

Question: What about the Observed efficacy (Botrytis cinerea; 0.016 ppm) of the same molecule?
Answer: 0%

Question: Which results are given for Fc1ccc([C@]2(Cn3cncn3)O[C@H]2c2ccccc2Cl)cc1 (racemic) [Epoxiconazole]?
Answer: Observed efficacy (Phytophthora infestans; 0.25 ppm): 11%; Observed efficacy (Botrytis cinerea; 0.063 ppm): 34%; Observed efficacy (Pyricularia oryzae; 0.25 ppm): 5%

Question: What does the source list for CC1=C(C(=O)O)N2C(=O)[C@@H](NC(=O)[C@H](N)c3ccccc3)[C@H]2SC1 [Control 1, Cephalexine]?
Answer: MIC [1]: 4 µg/mL (≈ 11.5 µM); MIC [2]: > 4100 µg/mL

Question: CC(=O)[O-].CCCCn1cc[n+](CCCC)c1 [C2, 1,3-Dibutylimidazolium acetate] was tested. Which MIC [1] did it give?
Answer: 2050 µg/mL

Question: And the MIC [2]?
Answer: 4100 µg/mL

Question: CCn1cc(C(=O)O)c(=O)c2ccc(C)nc21 [Control 3, Nalidixic acid] was tested. Which MIC [1] did it give?
Answer: 64 µg/mL (≈ 276 µM)

Question: What about the MIC [2] of the same molecule?
Answer: 1020 µg/mL (≈ 4410 µM)
